{"source": "the supplement of paper PMC8967900"}
{"system": "ALL-PO", "test": "selective drug sensitivity score (sDSS, relative to normal bone marrow) (sDSS (score)); higher = more potent and effective on the cell line relative to normal bone marrow cells", "settings": "72 h"}
{"smiles": "CCCCCOC(=O)Nc1nc(=O)n([C@@H]2O[C@H](C)[C@@H](O)[C@H]2O)cc1F", "note": "[Capecitabine] (top concentration 10000 nM)", "selective drug sensitivity score": -0.06}
{"smiles": "Nc1nc(Cl)nc2c1ncn2[C@H]1C[C@H](O)[C@@H](CO)O1", "note": "[Cladribine] (top concentration 1000 nM)", "selective drug sensitivity score": 8.66}
{"smiles": "CCN(CC)CCOc1ccc(/C(=C(/Cl)c2ccccc2)c2ccccc2)cc1", "note": "[Clomifene] (top concentration 10000 nM)", "selective drug sensitivity score": 0.62}
{"smiles": "CO[C@@H](C(=O)N1Cc2[nH]nc(NC(=O)c3ccc(N4CCN(C)CC4)cc3)c2C1)c1ccccc1", "note": "[Danusertib] (top concentration 10000 nM)", "selective drug sensitivity score": 13}
{"smiles": "CC[C@@](C)(Nc1ccnc(-c2c[nH]c3ncccc23)n1)C(=O)NCC(F)(F)F", "note": "[Decernotinib] (top concentration 10000 nM)", "selective drug sensitivity score": -3.94}
{"smiles": "CN1CCN(c2ccc3nc(-c4c(N)c5c(F)cccc5[nH]c4=O)[nH]c3c2)CC1", "note": "[Dovitinib] (top concentration 10000 nM)", "selective drug sensitivity score": 6.86}
{"smiles": "CC(C)(O)CNc1nc(Nc2ccnc(C(F)(F)F)c2)nc(-c2cccc(C(F)(F)F)n2)n1", "note": "[Enasidenib] (top concentration 10000 nM)", "selective drug sensitivity score": 2.7}
{"smiles": "CN1CCN(c2ccc(C(=O)Nc3n[nH]c4ccc(Cc5cc(F)cc(F)c5)cc34)c(NC3CCOCC3)c2)CC1", "note": "[Entrectinib] (top concentration 1000 nM)", "selective drug sensitivity score": 3.3}
{"smiles": "CNC(=O)c1ccc(N2C(=S)N(c3ccc(C#N)c(C(F)(F)F)c3)C(=O)C2(C)C)cc1F", "note": "[Enzalutamide] (top concentration 10000 nM)", "selective drug sensitivity score": 0.88}
{"smiles": "Cn1cc(C2=C(c3cn(C4CCN(Cc5ccccn5)CC4)c4ccccc34)C(=O)NC2=O)c2ccccc21", "note": "[Enzastaurin] (top concentration 10000 nM)", "selective drug sensitivity score": 5.96}
{"smiles": "NS(=O)(=O)NCCNc1nonc1/C(=N/O)Nc1ccc(F)c(Br)c1", "note": "[Epacadostat] (top concentration 10000 nM)", "selective drug sensitivity score": -0.26}
{"smiles": "CCOc1ccccc1-n1c(C(C)N2CCN(C(=O)COc3ccc(Cl)cc3)CC2)nc2ccccc2c1=O", "note": "(stereo not given) [Erastin] (top concentration 10000 nM)", "selective drug sensitivity score": 4.54}
{"smiles": "COc1cc(OC)cc(N(CCNC(C)C)c2ccc3ncc(-c4cnn(C)c4)nc3c2)c1", "note": "[Erdafitinib] (top concentration 1000 nM)", "selective drug sensitivity score": -0.46}
{"smiles": "CC(C)(C)NC(=O)[C@H]1CC[C@H]2[C@@H]3CC[C@H]4NC(=O)C=C[C@]4(C)[C@H]3CC[C@]12C", "note": "[Finasteride] (top concentration 10000 nM)", "selective drug sensitivity score": 0.48}
{"smiles": "O=c1[nH]c(=O)n([C@H]2C[C@H](O)[C@@H](CO)O2)cc1F", "note": "[Floxuridine] (top concentration 10000 nM)", "selective drug sensitivity score": 36.5}
{"smiles": "CNc1nc(Nc2cn(C(C)(C)C#N)nc2C)ncc1C(F)(F)F", "note": "[GNE-0877] (top concentration 1000 nM)", "selective drug sensitivity score": 0}
{"smiles": "CCCc1cc(C)[nH]c(=O)c1CNC(=O)c1cc(-c2ccnc(N3CCN(C)CC3)c2)cc2c1cnn2C(C)C", "note": "[GSK343] (top concentration 1000 nM)", "selective drug sensitivity score": 0.1}
{"smiles": "O=C(O)c1ccc(O)c2ncccc12", "note": "[IOX-1] (top concentration 100000 nM)", "selective drug sensitivity score": 3.74}
{"system": "DND-41", "test": "selective drug sensitivity score (sDSS, relative to normal bone marrow) (sDSS (score)); higher = more potent and effective on the cell line relative to normal bone marrow cells", "settings": "72 h"}
{"smiles": "CCCCCOC(=O)Nc1nc(=O)n([C@@H]2O[C@H](C)[C@@H](O)[C@H]2O)cc1F", "note": "[Capecitabine] (top concentration 10000 nM)", "selective drug sensitivity score": 1.84}
{"smiles": "Nc1nc(Cl)nc2c1ncn2[C@H]1C[C@H](O)[C@@H](CO)O1", "note": "[Cladribine] (top concentration 1000 nM)", "selective drug sensitivity score": 1.16}
{"smiles": "CCN(CC)CCOc1ccc(/C(=C(/Cl)c2ccccc2)c2ccccc2)cc1", "note": "[Clomifene] (top concentration 10000 nM)", "selective drug sensitivity score": 1.62}
{"smiles": "CO[C@@H](C(=O)N1Cc2[nH]nc(NC(=O)c3ccc(N4CCN(C)CC4)cc3)c2C1)c1ccccc1", "note": "[Danusertib] (top concentration 10000 nM)", "selective drug sensitivity score": -1.36}
{"smiles": "CC[C@@](C)(Nc1ccnc(-c2c[nH]c3ncccc23)n1)C(=O)NCC(F)(F)F", "note": "[Decernotinib] (top concentration 10000 nM)", "selective drug sensitivity score": -2.64}
{"smiles": "CN1CCN(c2ccc3nc(-c4c(N)c5c(F)cccc5[nH]c4=O)[nH]c3c2)CC1", "note": "[Dovitinib] (top concentration 10000 nM)", "selective drug sensitivity score": 0.16}
{"smiles": "CC(C)(O)CNc1nc(Nc2ccnc(C(F)(F)F)c2)nc(-c2cccc(C(F)(F)F)n2)n1", "note": "[Enasidenib] (top concentration 10000 nM)", "selective drug sensitivity score": 0.4}
{"smiles": "CN1CCN(c2ccc(C(=O)Nc3n[nH]c4ccc(Cc5cc(F)cc(F)c5)cc34)c(NC3CCOCC3)c2)CC1", "note": "[Entrectinib] (top concentration 1000 nM)", "selective drug sensitivity score": -1.2}
{"smiles": "CNC(=O)c1ccc(N2C(=S)N(c3ccc(C#N)c(C(F)(F)F)c3)C(=O)C2(C)C)cc1F", "note": "[Enzalutamide] (top concentration 10000 nM)", "selective drug sensitivity score": 1.58}
{"smiles": "Cn1cc(C2=C(c3cn(C4CCN(Cc5ccccn5)CC4)c4ccccc34)C(=O)NC2=O)c2ccccc21", "note": "[Enzastaurin] (top concentration 10000 nM)", "selective drug sensitivity score": 4.56}
{"smiles": "NS(=O)(=O)NCCNc1nonc1/C(=N/O)Nc1ccc(F)c(Br)c1", "note": "[Epacadostat] (top concentration 10000 nM)", "selective drug sensitivity score": -0.26}
{"smiles": "CCOc1ccccc1-n1c(C(C)N2CCN(C(=O)COc3ccc(Cl)cc3)CC2)nc2ccccc2c1=O", "note": "(stereo not given) [Erastin] (top concentration 10000 nM)", "selective drug sensitivity score": 7.14}
{"smiles": "COc1cc(OC)cc(N(CCNC(C)C)c2ccc3ncc(-c4cnn(C)c4)nc3c2)c1", "note": "[Erdafitinib] (top concentration 1000 nM)", "selective drug sensitivity score": -0.26}
{"smiles": "CC(C)(C)NC(=O)[C@H]1CC[C@H]2[C@@H]3CC[C@H]4NC(=O)C=C[C@]4(C)[C@H]3CC[C@]12C", "note": "[Finasteride] (top concentration 10000 nM)", "selective drug sensitivity score": 2.98}
{"smiles": "O=c1[nH]c(=O)n([C@H]2C[C@H](O)[C@@H](CO)O2)cc1F", "note": "[Floxuridine] (top concentration 10000 nM)", "selective drug sensitivity score": 21}
{"smiles": "CNc1nc(Nc2cn(C(C)(C)C#N)nc2C)ncc1C(F)(F)F", "note": "[GNE-0877] (top concentration 1000 nM)", "selective drug sensitivity score": 0}
{"smiles": "CCCc1cc(C)[nH]c(=O)c1CNC(=O)c1cc(-c2ccnc(N3CCN(C)CC3)c2)cc2c1cnn2C(C)C", "note": "[GSK343] (top concentration 1000 nM)", "selective drug sensitivity score": 0}
{"smiles": "O=C(O)c1ccc(O)c2ncccc12", "note": "[IOX-1] (top concentration 100000 nM)", "selective drug sensitivity score": 6.24}
{"system": "TMD5", "test": "selective drug sensitivity score (sDSS, relative to normal bone marrow) (sDSS (score)); higher = more potent and effective on the cell line relative to normal bone marrow cells", "settings": "72 h"}
{"smiles": "CCCCCOC(=O)Nc1nc(=O)n([C@@H]2O[C@H](C)[C@@H](O)[C@H]2O)cc1F", "note": "[Capecitabine] (top concentration 10000 nM)", "selective drug sensitivity score": -0.06}
{"smiles": "Nc1nc(Cl)nc2c1ncn2[C@H]1C[C@H](O)[C@@H](CO)O1", "note": "[Cladribine] (top concentration 1000 nM)", "selective drug sensitivity score": -16}
{"smiles": "CCN(CC)CCOc1ccc(/C(=C(/Cl)c2ccccc2)c2ccccc2)cc1", "note": "[Clomifene] (top concentration 10000 nM)", "selective drug sensitivity score": 1.32}
{"smiles": "CO[C@@H](C(=O)N1Cc2[nH]nc(NC(=O)c3ccc(N4CCN(C)CC4)cc3)c2C1)c1ccccc1", "note": "[Danusertib] (top concentration 10000 nM)", "selective drug sensitivity score": 14.5}
{"smiles": "CC[C@@](C)(Nc1ccnc(-c2c[nH]c3ncccc23)n1)C(=O)NCC(F)(F)F", "note": "[Decernotinib] (top concentration 10000 nM)", "selective drug sensitivity score": -1.74}
{"smiles": "CN1CCN(c2ccc3nc(-c4c(N)c5c(F)cccc5[nH]c4=O)[nH]c3c2)CC1", "note": "[Dovitinib] (top concentration 10000 nM)", "selective drug sensitivity score": -0.14}
{"smiles": "CC(C)(O)CNc1nc(Nc2ccnc(C(F)(F)F)c2)nc(-c2cccc(C(F)(F)F)n2)n1", "note": "[Enasidenib] (top concentration 10000 nM)", "selective drug sensitivity score": -0.8}
{"smiles": "CN1CCN(c2ccc(C(=O)Nc3n[nH]c4ccc(Cc5cc(F)cc(F)c5)cc34)c(NC3CCOCC3)c2)CC1", "note": "[Entrectinib] (top concentration 1000 nM)", "selective drug sensitivity score": -0.5}
{"smiles": "CNC(=O)c1ccc(N2C(=S)N(c3ccc(C#N)c(C(F)(F)F)c3)C(=O)C2(C)C)cc1F", "note": "[Enzalutamide] (top concentration 10000 nM)", "selective drug sensitivity score": -0.82}
